Measured values published in patent US7307077B2, “Heterocyclic compound and antitumor agent containing the same as effective ingredient” (Zenyaku Kogyo Kabushiki Kaisha, priority 2001, dated 2007).

Assays:
MCF-7 cells = assay: Test 1: growth inhibition of MCF-7 human breast cancer cells; assay type: cell-based; details: Homo sapiens, MCF7, 72 hours culture with sample, read-out: GI50 (50% growth inhibition concentration)
Description: Used in the test were MCF-7 cells which were established from human breast cancer and were cultured routinely under the conditions of 37° C. and 5% CO2, in MEM medium supplemented with 10% fetal calf serum, 25 mM of HEPES and 0.1 mg/ml of kanamycin. The MCF-7 cells in a logarithmic growth phase were treated with trypsin/EDTA to prepare single cell suspension adjusted to 4.0×10^4 cells/ml in MEM medium (supplemented with 10% fetal calf serum, 25 mM of HEPES and 0.1 mg/ml of kanamycin). Test compounds were dissolved in DMSO and diluted with RPMI 1640 medium (supplemented with 10% fetal calf serum, 25 mM of HEPES and 0.1 mg/ml of kanamycin) to a concentration of 2.0×10^−4-2.0×10^−9 M.
The cell suspension was filled in a 96-wells microplate at a rate of 0.1 ml per well and was cultured for 24 hours so as to make the cells adhered to the microplate. Then, it was added with 0.1 ml of the sample solution and cultured at 37° C. for 72 hours in 5% CO2.
50% Growth inhibition concentrations (GI50 μM) were calculated from growth inhibitions at various sample concentrations.

Human colon cancer WiDr = assay: Test 2: human colon cancer WiDr subcutaneous tumor in nude mice; assay type: in vivo, mutant BALA/c nude mice; details: intraperitoneally 200 mg/kg, once a day, six times a week, for two weeks
Description: Human colon cancer WiDr was grown as subcutaneous tumor in mutant BALA/c nude mice. 2-mm-cube tumor fragments were transplanted subcutaneously into left flank of the nude mice. When the tumor reached logarithmic growth phase, mice were divided randomly into test groups consisting five mice per group. The samples prepared by dissolving test compounds in physiological saline solution or suspending them in 1% hydroxypropyl cellulose (HPC), using an agate mortar, were intraperitoneally administered at a rate of 200 mg/kg, once a day and six times a week in total, for two weeks. Major and minor axes of the tumor mass were measured on a daily basis to calculate tumor volume. The tumor volume at each measured day was divided by that at the start day of the sample administration to calculate relative tumor growth rate; and the relative tumor growth rate of the treated groups (T) and that of the control group (C) were used to calculate T/C (%).

**Q.** With `FC(F)c1nc2ccccc2n1-c1nc(N2CCOCC2)nc(N2CCOCC2)n1` [compound 19, 2-(2-difluoromethylbenzimidazol-1-yl)-4,6-dimorpholino-1,3,5-triazine] as the compound, how does the GI50 (MCF-7 cells) read?
**A.** 90 nM

**Q.** And the “judgment (T/C (%) of relative tumor growth rate, last day)” value (Human colon cancer WiDr)?
**A.** + (Cases where T/C (%) of the last day was less than 50% and U-assay of Mann-Whitney revealed significant difference with one-sided risk rate of 1% were judged to be effective (+))

**Q.** With `Nc1ccc2nc(C(F)F)n(-c3nc(N4CCOCC4)cc(N4CCOCC4)n3)c2c1` [compound 35, 2-(6-amino-2-difluoromethylbenzimidazol-1-yl)-4,6-dimorpholinopyrimidine] as the compound, how does the GI50 (MCF-7 cells) read?
**A.** 140 nM

**Q.** What about the melting point of the same compound?
**A.** 218 to 219 °C (dec.)

**Q.** What does the source list for `CC1(C)CN(c2nc(N3CCOCC3)nc(-n3c(C(F)F)nc4ccccc43)n2)CCO1` [compound 15, 2-(2-difluoromethylbenzimidazol-1-yl)-4-(2,2-dimethylmorpholino)-6-morpholino-1,3,5-triazine]?
**A.** GI50 (MCF-7 cells): 130 nM; melting point: 176 to 178 °C

**Q.** What does the source list for `COC(=O)Nc1nc2ccccc2n1-c1nc(N2CCOCC2)nc(N2CCOCC2)n1` [compound 29, 2-(2-methoxycarbonylaminobenzimidazol-1-yl)-4,6-dimorpholino-1,3,5-triazine]?
**A.** GI50 (MCF-7 cells): 250 nM; melting point: 206 to 209 °C

**Q.** Which GI50 (MCF-7 cells) does the source give for `C[C@@H]1OCCN(c2cc(N3CCCCC3)nc(-n3c(CO)nc4ccccc43)n2)[C@@H]1C` (relative stereo) [compound 11, 4-(cis-2,3-dimethylmorpholino)-2-(2-hydroxymethylbenzimidazol-1-yl)-6-piperidinopyrimidine] here?
**A.** 200 nM

**Q.** And the melting point?
**A.** 141 to 143 °C

**Q.** Which GI50 (MCF-7 cells) does the source give for `FC(F)c1nc2ccccc2n1-c1nc(N2CCOCC2)cc(N2CCOCC2)n1` [compound 2, 2-(2-difluoromethylbenzimidazol-1-yl)-4,6-dimorpholinopyrimidine] here?
**A.** 210 nM

**Q.** And the melting point?
**A.** 201 to 202 °C

**Q.** For `C[C@@H]1OCCN(c2cc(N3CCOCC3)nc(-n3c(CF)nc4ccccc43)n2)[C@@H]1C` (relative stereo) [compound 9, 4-(cis-2,3-dimethylmorpholino)-2-(2-fluoromethylbenzimidazol-1-yl)-6-morpholinopyrimidine], which GI50 (MCF-7 cells) is on record?
**A.** 200 nM

**Q.** And the melting point?
**A.** 163 to 165 °C

**Q.** Which results are given for `Oc1ccc2c(c1)nc(C(F)F)n2-c1nc(N2CCOCC2)cc(N2CCOCC2)n1` [compound 40, 2-(2-difluoromethyl-5-hydroxybenzimidazol-1-yl)-4,6-dimorpholinopyrimidine]?
**A.** GI50 (MCF-7 cells): 210 nM; melting point: 223 to 226 °C (dec.)

**Q.** With `CC1(C)OCCN1c1nc(N2CCOCC2)nc(-n2c(C(F)F)nc3cc(O)ccc32)n1` [compound 39, 2-(2-difluoromethyl-5-hydroxybenzimidazol-1-yl)-4-(2,2-dimethyloxazolidin-3-yl)-6-morpholino-1,3,5-triazine] as the compound, how does the GI50 (MCF-7 cells) read?
**A.** 60 nM

**Q.** And the melting point?
**A.** 239 to 243 °C (dec.)

**Q.** What does the source list for `Nc1cccc2c1nc(C(F)F)n2-c1nc(N2CCOCC2)nc(N2CCOCC2)n1` [compound 34, 2-(4-amino-2-difluoromethylbenzimidazol-1-yl)-4,6-dimorpholino-1,3,5-triazine]?
**A.** GI50 (MCF-7 cells): 80 nM; melting point: 214 to 216 °C (dec.)

**Q.** Which GI50 (MCF-7 cells) does the source give for `C[C@H]1COC(C)(C)CN1c1cc(N2CCOCC2)nc(-n2c(C(F)F)nc3ccccc32)n1` [compound 8, 2-(2-difluoromethylbenzimidazol-1-yl)-4-morpholino-6-[2,2,5(S)-trimethylmorpholino]pyrimidine] here?
**A.** 320 nM

**Q.** What about the melting point of the same compound?
**A.** 113 to 116 °C

**Q.** Which results are given for `C[C@@H]1OCCN(c2nc(N3CCOCC3)nc(-n3c(C(F)F)nc4ccc(N)cc43)n2)[C@@H]1C` (relative stereo) [compound 33, 2-(6-amino-2-difluoromethylbenzimidazol-1-yl)-4-(2,3-cis-dimethylmorpholino)-6-morpholino-1,3,5-triazine]?
**A.** GI50 (MCF-7 cells): 80 nM; judgment (T/C (%) of relative tumor growth rate, last day) (Human colon cancer WiDr): + (Cases where T/C (%) of the last day was less than 50% and U-assay of Mann-Whitney revealed significant difference with one-sided risk rate of 1% were judged to be effective (+)); melting point: 220 to 222 °C (dec.)

**Q.** Which GI50 (MCF-7 cells) does the source give for `C[C@@H]1OCCN(c2nc(N3CCOCC3)nc(-n3c(C(F)F)nc4cc(O)ccc43)n2)[C@@H]1C` (relative stereo) [compound 37, 2-(2-difluoromethyl-5-hydroxybenzimidazol-1-yl)-4-(2,3-cis-dimethylmorpholino)-6-morpholino-1,3,5-triazine] here?
**A.** 90 nM

**Q.** What about the melting point of the same compound?
**A.** 170 to 175 °C (dec.)

**Q.** For `CC1(C)CN(c2nc(N3CCOCC3)nc(-n3c(C(F)F)nc4c(O)cccc43)n2)CCO1` [compound 38, 2-(2-difluoromethyl-4-hydroxybenzimidazol-1-yl)-4-(2,2-dimethylmorpholino)-6-morpholino-1,3,5-triazine], which GI50 (MCF-7 cells) is on record?
**A.** 30 nM

**Q.** And the melting point?
**A.** 228 to 231 °C (dec.)

**Q.** Which results are given for `CC(=O)Nc1nc2ccccc2n1-c1nc(N2CCOCC2)nc(N2CCOCC2)n1` [compound 22, 2-(2-acetylaminobenzimidazol-1-yl)-4,6-dimorpholino-1,3,5-triazine]?
**A.** GI50 (MCF-7 cells): 230 nM; judgment (T/C (%) of relative tumor growth rate, last day) (Human colon cancer WiDr): + (Cases where T/C (%) of the last day was less than 50% and U-assay of Mann-Whitney revealed significant difference with one-sided risk rate of 1% were judged to be effective (+)); melting point: 243 to 245 °C

**Q.** For `CC(=O)Nc1nc2ccccc2n1-c1nc(N2CCOCC2)cc(N2CCO[C@@H](C)[C@@H]2C)n1` (relative stereo) [compound 23, 2-(2-acetylaminobenzimidazol-1-yl)-4-(trans-2,3-dimethylmorpholino)-6-morpholinopyrimidine], which GI50 (MCF-7 cells) is on record?
**A.** 190 nM

**Q.** And the melting point?
**A.** 150 to 153 °C

**Q.** Which GI50 (MCF-7 cells) does the source give for `CC1CN(c2nc(N3CCOCC3)nc(-n3c(C(F)F)nc4ccccc43)n2)CCO1` (stereo not shown) [compound 17, 2-(2-difluoromethylbenzimidazol-1-yl)-4-(2-methylmorpholino)-6-morpholino-1,3,5-triazine] here?
**A.** 120 nM

**Q.** And the melting point?
**A.** 188 to 191 °C

**Q.** Which GI50 (MCF-7 cells) does the source give for `C[C@@H]1OCCN(c2cc(N3CCOCC3)nc(-n3c(CO)nc4ccccc43)n2)[C@@H]1C` (relative stereo) [compound 10, 4-(cis-2,3-dimethylmorpholino)-2-(2-hydroxymethylbenzimidazol-1-yl)-6-morpholinopyrimidine] here?
**A.** 130 nM

**Q.** And the melting point?
**A.** 125 to 128 °C

**Q.** With `C[C@@H]1OCCN(c2cc(N3CCOCC3)nc(-n3c(NC=O)nc4ccccc43)n2)[C@H]1C` (relative stereo) [compound 27, 4-(trans-2,3-dimethylmorpholino)-2-(2-formylaminobenzimidazol-1-yl)-6-morpholinopyrimidine] as the compound, how does the GI50 (MCF-7 cells) read?
**A.** 160 nM

**Q.** And the melting point?
**A.** 143 to 146 °C

**Q.** Which results are given for `C[C@@H]1OCCN(c2cc(N3CCOCC3)nc(-n3c(N)nc4ccccc43)n2)[C@@H]1C.Cl` (relative stereo) [compound 30, 2-(2-aminobenzimidazol-1-yl)-4-(cis-2,3-dimethylmorpholino)-6-morpholinopyrimidine hydrochloride]?
**A.** GI50 (MCF-7 cells): 250 nM; melting point: 151 to 155 °C

**Q.** Which GI50 (MCF-7 cells) does the source give for `C[C@@H]1OCCN(c2cc(N3CCCC3CO)nc(-n3c(CO)nc4ccccc43)n2)[C@@H]1C` (relative stereo) [compound 12, 4-(cis-2,3-dimethylmorpholino)-2-(2-hydroxymethylbenzimidazol-1-yl)-6-(2-hydroxymethylpyrrolidin-1-yl)pyrimidine] here?
**A.** 390 nM

**Q.** And the melting point?
**A.** 104 to 108 °C

**Q.** Which GI50 (MCF-7 cells) does the source give for `C[C@@H]1OCCN(c2cc(N3CCOCC3)nc(-n3c(C(F)F)nc4ccccc43)n2)[C@@H]1C` (relative stereo) [compound 1, 2-(2-difluoromethylbenzimidazol-1-yl)-4-(cis-2,3-dimethylmorpholino)-6-morpholinopyrimidine] here?
**A.** 110 nM

**Q.** And the melting point?
**A.** 167 to 169 °C

**Q.** Which GI50 (MCF-7 cells) does the source give for `C[C@@H]1COC(C)(C)CN1c1nc(N2CCOCC2)nc(-n2c(C(F)F)nc3ccccc32)n1` [compound 20, 2-(2-difluoromethylbenzimidazol-1-yl)-4-morpholino-6-[2,2,5(R)-trimethylmorpholino]-1,3,5-triazine] here?
**A.** 220 nM

**Q.** And the melting point?
**A.** 169 to 171 °C

**Q.** With `C[C@@H]1OCCN(c2cc(N3CCOCC3)nc(-n3c(C(F)F)nc4ccc(N)cc43)n2)[C@@H]1C` (relative stereo) [compound 36, 2-(6-amino-2-difluoromethylbenzimidazol-1-yl)-4-(2,3-cis-dimethylmorpholino)-6-morpholinopyrimidine] as the compound, how does the GI50 (MCF-7 cells) read?
**A.** 290 nM

**Q.** And the melting point?
**A.** 155 to 158 °C (dec.)

**Q.** For `CC1(C)CN(c2cc(N3CCOCC3)nc(-n3c(C(F)F)nc4ccccc43)n2)CCO1` [compound 5, 2-(2-difluoromethylbenzimidazol-1-yl)-4-(2,2-dimethylmorpholino)-6-morpholinopyrimidine], which GI50 (MCF-7 cells) is on record?
**A.** 220 nM

**Q.** What about the melting point of the same compound?
**A.** 149 to 152 °C
